The values that follow come from US9416141B2 (University of Washington through its Center for …, priority 2012, dated 2016).

This test concerns hair cells. The test can be described thus: Hair cell toxicity assay in zebrafish (neomycin-induced hair cell death, DASPEI staining of neuromasts). The conditions noted are these: Danio rerio; for Emax at 25 µM: maximum observed @ 25 μM test compound, 200 micromolar neomycin, read-out: Max HC Protection (HCmax, % hair cell survival). It is filed as in vivo. The essentials: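 Zebrafish larvae 5-7 dpf pre-treated 1 h with compound (0.010-25 μM), then 30 min with 200 μM neomycin plus compound. DASPEI stained 10 neuromasts per fish, scored 0-2 (total 0-20), normalised to vehicle controls as % hair cell survival. HC50 linearly interpolated if survival reached ≥50%; HCmax is maximum survival.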

As for `CCN1CCc2c(sc(NC(=O)Nc3ccc(Cl)cc3Cl)c2C(N)=O)C1` [Example 229, 2-{[(2,4-dichlorophenyl)carbamoyl]amino}-6-ethyl-4H,5H,6H,7H-thieno[2,3-c]pyridine-3-carboxamide], the Emax at 25 µM was found to be 54%. Besides, under “zebrafish larvae 5-7 dpf, 1 h pre-treatment, then 200 micromolar neomycin + test compound 30 min, read-out: HC50 (concentration that would produce 50% hair cell survival)”, the EC50 was above 10 µM. As for `CCN1CCc2c(sc(NC(=O)Nc3ccc(OC)cc3)c2C(N)=O)C1` [Example 230, 6-ethyl-2-{[(4-methoxyphenyl)carbamoyl]amino}-4H,5H,6H,7H-thieno[2,3-c]pyridine-3-carboxamide], the Emax at 25 µM was determined as 48%.
